# Assays:
# [1] = system: Hartley albino guinea pigs (spontaneous cartilage degeneration / osteoarthritis); assay: Guinea Pig Spontaneous Osteoarthritis Study; format: in vivo
# Excerpt: Hartley albino guinea pigs undergo spontaneous cartilage degeneration, and they have been used as a convenient small animal model system to study osteoarthritis (OA) and have potential physiologic relevance to the OA that spontaneously develops in humans. Disease-related morphologic changes observed in the guinea pigs are similar to the histopathologic alternations in the joints of humans with OA. Other significant similarities between the OA in Hartley guinea pigs and that in humans are also known. Huebner, Collagenase 1 and Collagenase 3 Expression in a Guinea Pig Model of Osteoarthritis, 41 Arthritis Rheum. 877-890 no. 5(May 1998). The Hartley guinea pig spontaneous model can be used to study the effects of Arzoxifene on OA.
# Hartley strain guinea pigs, approximately three month old males, are used for the study. (In one study, 5.5 month old males were used, as indicated by FIG. 8). The Hartley albino guinea pigs are provided ad lib access to food (Ca 1.1%, p 0.6%, Vitamin D 3400 IU/kg) and water. The guinea pigs are dosed subcutaneously with Arzoxifene at 0.03, 0.1, 0.3, and/or 0.5 mg/kg/d for about two to four months. The study generally includes 15 guinea pigs per treatment group, except for the baseline, which generally includes 10 guinea pigs. Urine and serum are to be collected at 0, 2, 4, 6, 12, and 16 weeks for biomarker evaluation. The right knee joints are harvested for histology and the left knee joint for surface osteoarthritis scoring.
# The effects observed on OA lesion areas by quantitative image analyses are illustrated by the graph in FIG. 3. The Zones of the lesion in the knee joint are illustrated by FIG. 1. Osteoarthritis changes are further evaluated by histologically quantitative analyses on paraffin embedded sections. The severities of joint damage are assessed for the depth of chondrocyte lesion and loss of proteoglycan on a score 0-5 for increasing severity on each third of the cartilage surface (Animla molde of osteoarthritis, A. M. Bendele (J Musculoskel Neuron Interact 2001: 1: 363-376)). Osteophyte development also evaluated by measuring the size.
# [2] = system: ovariectomized Sprague-Dawley rats; assay: Intermittent Dosing Analysis of Arzoxifene in Ovariectomized Rats (Prevention Model), femur QCT; format: in vivo, rat; settings: Ovx rats, 1 mg/kg oral
# Description: Arzoxifene will be administered using several different dosing intervals for 5 weeks to 6 month-old rats, one week after ovariectomy.
# Live phase: A total of about 78 female Sprague-Dawley rats (Harlan Sprague Dawley Inc) are used for this study design. 72 of the rats are ovariectomized (Ovx) at 6 months of age and 6 rats are used as sham-ovariectomized controls. Rats were maintained on a 12 hour light/dark cycle at 22° C. with ad lib access to food (TD 89222 with 0.5% Ca and 0.4% P, Teklad, Madison, Wis.) and water. Sham and Ovx controls are orally administered a vehicle of 20% hydroxy propyl-β-cyclodextrin (Aldrich Chemical Co). Arzoxifene (1 mg/kg) treated rats are dosed daily, every other day (QOD), every third day (Q3D), weekly on Monday (QW), or twice a week on Monday and Friday (M/F), as indicated. Each group contains 6 animals/grp and the treatment duration is about 5 weeks.
# Analyses: Intact femora are removed and cleaned of soft-tissue and preserved in 50% ethanol/saline at 4° C. Femora are centered with respect to the QCT gantry (Research M, Stratec). A coronal scout scan of the specimen is generated first in 2 Dimension (2D) and then femora are scanned to measure bone mineral density (BMD, mg/cc), bone mineral content (BMC, mg), and cross-sectional area (mm2).
# [3] = system: postmenopausal women with osteopenia; assay: OA biomarkers on a subset of samples from the Phase 2 osteopenia study; format: in vivo, human; settings: no selection for OA
# Description: A Phase 2, multicenter, randomized, double-blind, placebo- and raloxifene-controlled study of arzoxifene enrolled 219 postmenopausal women with osteopenia (defined as bone mineral density [BMD] t-score at the lumbar spine and/or femoral neck >−2.5 and ≦−1). The study assessed the effects of arzoxifene compared with raloxifene HCl (60 mg/day) and placebo on biochemical markers of bone metabolism, cardiovascular disease risk markers, and on overall safety.
# CTXII was not evaluated as the assay is validated for urine specimens, which were not available.
# [4] = Half life of arzoxifene in human patients; format: in vivo
# [5] = Half life of arzoxifene in laboratory animals; format: in vivo
smiles,measurement,setting,value
COc1ccc(-c2sc3cc(O)ccc3c2Oc2ccc(OCCN3CCCCC3)cc2)cc1 [arzoxifene],OA progression based on OA surface area and osteophyte development,"[1]; 0.5 mg/kg/d subcutaneous, one study (FIG. 8, 5.5 month old males)",did not have a statistical effect on OA progression
same,effect on preventing or slowing the progression of OA,"[1]; Hartley guinea pigs, subcutaneous, about two to four months, OA lesion areas by image analysis (FIG. 3)",positive effect on preventing or slowing the progression of OA
same,OA progress: OA surface area and osteophyte development,"[1]; lower doses tested (0.03, 0.1, 0.3 mg/kg/d subcutaneous), FIGS. 4-7",favorable effect on preventing or delaying the OA progress
same,"loss of BMD, distal femur metaphysis by QCT","[2]; daily, about 5 weeks (FIG. 9)",prevented
same,"loss of BMD, distal femur metaphysis by QCT","[2]; every other day (QOD), about 5 weeks (FIG. 9)",prevented
same,"loss of BMD, distal femur metaphysis by QCT","[2]; every third day (Q3D), about 5 weeks (FIG. 9)",prevented
same,"loss of BMD, distal femur metaphysis by QCT","[2]; twice a week Monday and Friday (M/F), about 5 weeks (FIG. 9)",prevented
same,"loss of BMD, distal femur metaphysis by QCT","[2]; weekly on Monday (QW), about 5 weeks, QW BMD intermediate between Ovx and Sham and less than Sham (FIG. 9)",only partially efficacious
same,COMP biomarker difference between placebo and arzoxifene,[3],modest but significant biomarker differences
same,human cartilage glycoprotein-39 (YKL-40) biomarker difference between placebo and arzoxifene,[3],modest but significant biomarker differences
same,half life,[4],longer than one day
same,half life,[5],consistent with a daily dosing regimen
